The values that follow come from patent US20090036499A1, “FLY CONTROL METHOD” (priority 2007, published 2009).

This assay relates to Adult L. serricata (blowflies). Description: Test A: adult blowflies on blood agar containing test compound, scored by number of dead flies. The conditions noted are these: 4 flies in test. Format: in vivo. On the procedure: • Adult L. serricata (blowflies): Adult flies are placed on beds of blood agar (in individual test wells; 4 flies per well) in which test compound, (3-bromo-N-[4-chloro-2-methyl-6-[(methylamino)carbonyl]phenyl]-1-(3-chloro-2-pyridinyl)-1H-pyrazole-5-carboxamide), was dissolved/suspended prior to hardening of agar. Flies can take up test compound by both ingestion and contact. Assays are scored by number of dead flies at 2 hours, 4 hours, and 24 hours.

Take `CCOP(=S)(OCC)Oc1nc(Cl)c(Cl)cc1Cl` [Chloropyriphos, O,O-diethyl-O-3,5,6-trichloro-2-pyridyl-phosphorothioate]: the “Number dead flies at 2 hours” value by setting is: (1 ppm in blood agar) 0; (10 ppm in blood agar) 1; (25 ppm in blood agar) 3; (50 ppm in blood agar) 4; (100 ppm in blood agar) 4. The “Number dead flies at 4 hours” value was 1 (1 ppm in blood agar); 4 (10 ppm in blood agar); 4 (25 ppm in blood agar); 4 (50 ppm in blood agar); 4 (100 ppm in blood agar). The “Number dead flies at 24 hours” value (1 ppm in blood agar) is 4; the “Number dead flies at 24 hours” value (10 ppm in blood agar) is recorded as 4; the “Number dead flies at 24 hours” value (25 ppm in blood agar) amounted to 4; the “Number dead flies at 24 hours” value (50 ppm in blood agar) amounted to 4; the “Number dead flies at 24 hours” value (100 ppm in blood agar) stood at 4.
Regarding `CNC(=O)c1cc(Cl)cc(C)c1NC(=O)c1cc(Br)nn1-c1ncccc1Cl` [Test Compound, 3-bromo-N-[4-chloro-2-methyl-6-[(methylamino)carbonyl]phenyl]-1-(3-chloro-2-pyridinyl)-1H-pyrazole-5-carboxamide], the “Number dead flies at 2 hours” value (1 ppm in blood agar) was 0; the “Number dead flies at 2 hours” value (10 ppm in blood agar) was 0; the “Number dead flies at 2 hours” value (25 ppm in blood agar) is 0; the “Number dead flies at 2 hours” value (50 ppm in blood agar) was determined as 0; the “Number dead flies at 2 hours” value (100 ppm in blood agar) is 0. For the same compound, the “Number dead flies at 4 hours” value (1 ppm in blood agar) came out at 0; the “Number dead flies at 4 hours” value (10 ppm in blood agar) is 0; the “Number dead flies at 4 hours” value (25 ppm in blood agar) was 0; the “Number dead flies at 4 hours” value (50 ppm in blood agar) is reported as 0; the “Number dead flies at 4 hours” value (100 ppm in blood agar) amounted to 0. The “Number dead flies at 24 hours” value runs as follows: (1 ppm in blood agar) 0; (10 ppm in blood agar) 1; (25 ppm in blood agar) 2; (50 ppm in blood agar) 2; (100 ppm in blood agar) 3.
